Source: the supplement of paper PMC13380429

How the values were obtained:
Details in all cases: 72 h
Caco-2 [1] = experiment: cell viability relative to DMSO; higher = less toxic
Calu-3 [2] = experiment: as above
HepG2 [3] = experiment: as above
U2OS [4] = experiment: as above
Vero E6 [5] = experiment: as above
Caco-2 [6] = experiment: drug sensitivity score (DSS) for viability; higher = more toxic; extreme values may be limits of the assay
Calu-3 [7] = experiment: as above
HepG2 [8] = experiment: as above
U2OS [9] = experiment: as above
Vero E6 [10] = experiment: as above
Caco-2 [11] = experiment: relative viability EC50 (midpoint between 100% and the lowest measured viability); higher = less toxic
HepG2 [12] = experiment: as above
U2OS [13] = experiment: as above
Vero E6 [14] = experiment: as above

O=C(Nc1cccc2cccnc12)c1ccc(N2C(=O)[C@@H]3[C@H](C2=O)[C@@H]2C=C[C@H]3C2)cc1 [endo-IWR-1]
cell viability (Caco-2 [1]; 1 nM): 96%
cell viability (Caco-2 [1]; 10 nM): 94.3%
cell viability (Caco-2 [1]; 100 nM): 101%
cell viability (Caco-2 [1]; 1000 nM): 89.2%
cell viability (Caco-2 [1]; 10000 nM): 94.2%
cell viability (Calu-3 [2]; 10 nM): 108%
cell viability (Calu-3 [2]; 100 nM): 98.9%
cell viability (Calu-3 [2]; 1000 nM): 81.8%
cell viability (Calu-3 [2]; 10000 nM): 74.4%
cell viability (HepG2 [3]; 1 nM): 108%
cell viability (HepG2 [3]; 10 nM): 103%
cell viability (HepG2 [3]; 100 nM): 98.5%
cell viability (HepG2 [3]; 10000 nM): 91.7%
cell viability (U2OS [4]; 10 nM): 105%
cell viability (U2OS [4]; 100 nM): 103%
cell viability (U2OS [4]; 1000 nM): 98%
cell viability (U2OS [4]; 10000 nM): 93.3%
cell viability (Vero E6 [5]; 1 nM): 110%
cell viability (Vero E6 [5]; 10 nM): 105%
cell viability (Vero E6 [5]; 100 nM): 97.6%
cell viability (Vero E6 [5]; 1000 nM): 78.8%
cell viability (Vero E6 [5]; 10000 nM): 66.7%
drug sensitivity score (Caco-2 [6]): 0
drug sensitivity score (Calu-3 [7]): 2.9
drug sensitivity score (HepG2 [8]): 0
drug sensitivity score (U2OS [9]): 0
drug sensitivity score (Vero E6 [10]): 3.9

CCCCC/C=C\C/C=C\C/C=C\CCCCC(=O)O [gamma-linolenic-acid]
cell viability (Caco-2 [1]; 1 nM): 97.9%
cell viability (Caco-2 [1]; 10 nM): 103%
cell viability (Caco-2 [1]; 100 nM): 102%
cell viability (Caco-2 [1]; 1000 nM): 116%
cell viability (Caco-2 [1]; 10000 nM): 94%
cell viability (HepG2 [3]; 1 nM): 107%
cell viability (HepG2 [3]; 10 nM): 115%
cell viability (HepG2 [3]; 100 nM): 94.8%
cell viability (HepG2 [3]; 1000 nM): 99.2%
cell viability (HepG2 [3]; 10000 nM): 107%
cell viability (U2OS [4]; 1 nM): 106%
cell viability (U2OS [4]; 10 nM): 106%
cell viability (U2OS [4]; 100 nM): 98.9%
cell viability (U2OS [4]; 1000 nM): 103%
cell viability (U2OS [4]; 10000 nM): 103%
cell viability (Vero E6 [5]; 1 nM): 98.2%
cell viability (Vero E6 [5]; 10 nM): 103%
cell viability (Vero E6 [5]; 100 nM): 97.2%
cell viability (Vero E6 [5]; 1000 nM): 103%
cell viability (Vero E6 [5]; 10000 nM): 100%
relative viability EC50 (Caco-2 [11]): > 10 µM
relative viability EC50 (HepG2 [12]): > 10 µM
relative viability EC50 (U2OS [13]): > 10 µM
relative viability EC50 (Vero E6 [14]): > 10 µM
drug sensitivity score (Caco-2 [6]): 0
drug sensitivity score (HepG2 [8]): 0
drug sensitivity score (U2OS [9]): 0
drug sensitivity score (Vero E6 [10]): 0

C[C@]12CCC(=O)C=C1CC[C@@H]1[C@@H]2[C@@H](O)C[C@@]2(C)[C@H]1CC[C@]2(O)C(=O)CO [hydrocortisone]
drug sensitivity score (Calu-3 [7]): 0
drug sensitivity score (HepG2 [8]): 2.9
drug sensitivity score (U2OS [9]): 0
drug sensitivity score (Vero E6 [10]): 0

CC(C)C(N)=O [isobutyramide]
cell viability (Caco-2 [1]; 1 nM): 95.1%
cell viability (Caco-2 [1]; 10 nM): 95.6%
cell viability (Caco-2 [1]; 100 nM): 97.9%
cell viability (Caco-2 [1]; 1000 nM): 90.2%
cell viability (Caco-2 [1]; 10000 nM): 98.2%
cell viability (HepG2 [3]; 1 nM): 115%
cell viability (HepG2 [3]; 10 nM): 99.1%
cell viability (HepG2 [3]; 100 nM): 90.3%
cell viability (HepG2 [3]; 1000 nM): 101%
cell viability (HepG2 [3]; 10000 nM): 96.8%
cell viability (U2OS [4]; 1 nM): 102%
cell viability (U2OS [4]; 10 nM): 97.6%
cell viability (U2OS [4]; 100 nM): 101%
cell viability (U2OS [4]; 1000 nM): 98.8%
cell viability (U2OS [4]; 10000 nM): 104%
cell viability (Vero E6 [5]; 1 nM): 105%
cell viability (Vero E6 [5]; 10 nM): 106%
cell viability (Vero E6 [5]; 100 nM): 96.2%
cell viability (Vero E6 [5]; 1000 nM): 98%
cell viability (Vero E6 [5]; 10000 nM): 105%
relative viability EC50 (Caco-2 [11]): > 10 µM
relative viability EC50 (HepG2 [12]): > 10 µM
relative viability EC50 (U2OS [13]): > 10 µM
relative viability EC50 (Vero E6 [14]): > 10 µM
drug sensitivity score (Caco-2 [6]): 0
drug sensitivity score (HepG2 [8]): 0
drug sensitivity score (U2OS [9]): 0
drug sensitivity score (Vero E6 [10]): 0

O=c1cc(-c2ccc(O)c(O)c2)oc2cc(O)cc(O)c12 [luteolin]
cell viability (Caco-2 [1]; 1 nM): 92.8%
cell viability (Caco-2 [1]; 10 nM): 98.1%
cell viability (Caco-2 [1]; 100 nM): 95.9%
cell viability (Caco-2 [1]; 1000 nM): 94.5%
cell viability (Caco-2 [1]; 10000 nM): 79.3%
cell viability (Calu-3 [2]; 1 nM): 105%
cell viability (Calu-3 [2]; 10 nM): 123%
cell viability (Calu-3 [2]; 100 nM): 107%
cell viability (Calu-3 [2]; 1000 nM): 106%
cell viability (Calu-3 [2]; 10000 nM): 70.9%
cell viability (HepG2 [3]; 1 nM): 111%
cell viability (HepG2 [3]; 10 nM): 99.4%
cell viability (HepG2 [3]; 100 nM): 117%
cell viability (HepG2 [3]; 1000 nM): 97.5%
cell viability (HepG2 [3]; 10000 nM): 90.8%
cell viability (U2OS [4]; 1 nM): 99.9%
cell viability (U2OS [4]; 10 nM): 105%
cell viability (U2OS [4]; 100 nM): 99.9%
cell viability (U2OS [4]; 1000 nM): 105%
cell viability (U2OS [4]; 10000 nM): 79.4%
cell viability (Vero E6 [5]; 1 nM): 99.5%
cell viability (Vero E6 [5]; 10 nM): 105%
cell viability (Vero E6 [5]; 100 nM): 94.7%
cell viability (Vero E6 [5]; 1000 nM): 101%
cell viability (Vero E6 [5]; 10000 nM): 95.3%
relative viability EC50 (Caco-2 [11]): > 10 µM
relative viability EC50 (HepG2 [12]): > 10 µM
relative viability EC50 (U2OS [13]): > 10 µM
relative viability EC50 (Vero E6 [14]): > 10 µM
drug sensitivity score (Caco-2 [6]): 1.1
drug sensitivity score (Calu-3 [7]): 0.9
drug sensitivity score (HepG2 [8]): 0
drug sensitivity score (U2OS [9]): 0.4
drug sensitivity score (Vero E6 [10]): 0

CCN(CC)CCNC(=O)c1cc(Cl)c(N)cc1OC [metoclopramide]
drug sensitivity score (Calu-3 [7]): 0
drug sensitivity score (HepG2 [8]): 0
drug sensitivity score (U2OS [9]): 0
drug sensitivity score (Vero E6 [10]): 0

Nc1cc(N2CCCCC2)nc(N)[n+]1[O-] [minoxidil]
drug sensitivity score (Calu-3 [7]): 0
drug sensitivity score (HepG2 [8]): 0
drug sensitivity score (U2OS [9]): 0
drug sensitivity score (Vero E6 [10]): 0

CC1(C)CCC(C)(C)c2cc(Cn3cccn3)c(/C=C/c3ccc(C(=O)O)cc3)cc21 [palovarotene]
cell viability (Caco-2 [1]; 1 nM): 107%
cell viability (Caco-2 [1]; 10 nM): 93.7%
cell viability (Caco-2 [1]; 100 nM): 94.8%
cell viability (Caco-2 [1]; 1000 nM): 96%
cell viability (Caco-2 [1]; 10000 nM): 92.9%
cell viability (HepG2 [3]; 1 nM): 95.4%
cell viability (HepG2 [3]; 10 nM): 99.7%
cell viability (HepG2 [3]; 100 nM): 103%
cell viability (HepG2 [3]; 1000 nM): 113%
cell viability (HepG2 [3]; 10000 nM): 99.4%
cell viability (U2OS [4]; 1 nM): 105%
cell viability (U2OS [4]; 10 nM): 99.6%
cell viability (U2OS [4]; 100 nM): 102%
cell viability (U2OS [4]; 1000 nM): 94%
cell viability (U2OS [4]; 10000 nM): 94.8%
cell viability (Vero E6 [5]; 1 nM): 100%
cell viability (Vero E6 [5]; 10 nM): 104%
cell viability (Vero E6 [5]; 100 nM): 100%
cell viability (Vero E6 [5]; 1000 nM): 106%
cell viability (Vero E6 [5]; 10000 nM): 98.3%
relative viability EC50 (Caco-2 [11]): > 10 µM
relative viability EC50 (HepG2 [12]): > 10 µM
relative viability EC50 (U2OS [13]): > 10 µM
relative viability EC50 (Vero E6 [14]): > 10 µM
drug sensitivity score (Caco-2 [6]): 0
drug sensitivity score (HepG2 [8]): 0
drug sensitivity score (U2OS [9]): 0
drug sensitivity score (Vero E6 [10]): 0

Cc1cc(=O)n(-c2ccccc2)n1C [phenazone]
drug sensitivity score (Calu-3 [7]): 0
drug sensitivity score (HepG2 [8]): 0.8
drug sensitivity score (U2OS [9]): 0
drug sensitivity score (Vero E6 [10]): 0

COc1cc(NS(=O)(=O)c2ccc(N)cc2)ncn1 [sulfamonomethoxine]
cell viability (Caco-2 [1]; 1 nM): 92.6%
cell viability (Caco-2 [1]; 10 nM): 102%
cell viability (Caco-2 [1]; 100 nM): 95.4%
cell viability (Caco-2 [1]; 1000 nM): 98.4%
cell viability (Caco-2 [1]; 10000 nM): 98.7%
cell viability (HepG2 [3]; 1 nM): 108%
cell viability (HepG2 [3]; 10 nM): 104%
cell viability (HepG2 [3]; 100 nM): 115%
cell viability (HepG2 [3]; 1000 nM): 107%
cell viability (HepG2 [3]; 10000 nM): 90.9%
cell viability (U2OS [4]; 1 nM): 101%
cell viability (U2OS [4]; 10 nM): 99.7%
cell viability (U2OS [4]; 100 nM): 101%
cell viability (U2OS [4]; 1000 nM): 102%
cell viability (U2OS [4]; 10000 nM): 100%
cell viability (Vero E6 [5]; 1 nM): 106%
cell viability (Vero E6 [5]; 10 nM): 106%
cell viability (Vero E6 [5]; 100 nM): 106%
cell viability (Vero E6 [5]; 1000 nM): 104%
cell viability (Vero E6 [5]; 10000 nM): 97%
relative viability EC50 (Caco-2 [11]): > 10 µM
relative viability EC50 (HepG2 [12]): > 10 µM
relative viability EC50 (U2OS [13]): > 10 µM
relative viability EC50 (Vero E6 [14]): > 10 µM
drug sensitivity score (Caco-2 [6]): 0
drug sensitivity score (HepG2 [8]): 0
drug sensitivity score (U2OS [9]): 0
drug sensitivity score (Vero E6 [10]): 0

Cn1nc(-c2cccc(F)c2)n(C)c1=S [suritozole]
cell viability (Caco-2 [1]; 1 nM): 93.6%
cell viability (Caco-2 [1]; 10 nM): 97.5%
cell viability (Caco-2 [1]; 100 nM): 102%
cell viability (Caco-2 [1]; 1000 nM): 96%
cell viability (Caco-2 [1]; 10000 nM): 90.1%
cell viability (HepG2 [3]; 1 nM): 108%
cell viability (HepG2 [3]; 10 nM): 99.4%
cell viability (HepG2 [3]; 100 nM): 98.2%
cell viability (HepG2 [3]; 1000 nM): 106%
cell viability (HepG2 [3]; 10000 nM): 97%
cell viability (U2OS [4]; 1 nM): 98.9%
cell viability (U2OS [4]; 10 nM): 101%
cell viability (U2OS [4]; 100 nM): 99.7%
cell viability (U2OS [4]; 1000 nM): 103%
cell viability (U2OS [4]; 10000 nM): 96%
cell viability (Vero E6 [5]; 1 nM): 102%
cell viability (Vero E6 [5]; 10 nM): 101%
cell viability (Vero E6 [5]; 100 nM): 99.4%
cell viability (Vero E6 [5]; 1000 nM): 94.5%
cell viability (Vero E6 [5]; 10000 nM): 98.4%
relative viability EC50 (Caco-2 [11]): > 10 µM
relative viability EC50 (HepG2 [12]): > 10 µM
relative viability EC50 (U2OS [13]): > 10 µM
relative viability EC50 (Vero E6 [14]): > 10 µM
drug sensitivity score (Caco-2 [6]): 0
drug sensitivity score (HepG2 [8]): 0
drug sensitivity score (U2OS [9]): 0
drug sensitivity score (Vero E6 [10]): 0

CN(C)C(=S)SC(=S)N(C)C [tetramethylthiuram-monosulfide]
drug sensitivity score (Calu-3 [7]): 8.4
drug sensitivity score (HepG2 [8]): 11.3
drug sensitivity score (U2OS [9]): 5.7
drug sensitivity score (Vero E6 [10]): 8.1

N#C[C@@H]1CCCN1C(=O)CNC12CC3CC(CC(O)(C3)C1)C2 [vildagliptin]
drug sensitivity score (Calu-3 [7]): 0
drug sensitivity score (HepG2 [8]): 0
drug sensitivity score (Vero E6 [10]): 0
